Source: ChEMBL document CHEMBL3046753, “Isocoumarin Derivative as a Novel GABA Receptor Ligand from Neosartorya quadricincta” (J Pestic Sci, 2004)

Legend:
[1] = Inhibition of GABA receptor-induced currents in Rattus norvegicus (rat) dorsal ganglion neuron
GABA receptor subunit = biological target: T1, GABA receptor subunit (Musca domestica, UniProt Q75NA5); assay: Displacement of [3H]EBOB from GABA receptor in Musca domestica (house fly) head P2 membrane after 70 min by liquid scintillation counting
T1 sequence (Q75NA5 whole entry): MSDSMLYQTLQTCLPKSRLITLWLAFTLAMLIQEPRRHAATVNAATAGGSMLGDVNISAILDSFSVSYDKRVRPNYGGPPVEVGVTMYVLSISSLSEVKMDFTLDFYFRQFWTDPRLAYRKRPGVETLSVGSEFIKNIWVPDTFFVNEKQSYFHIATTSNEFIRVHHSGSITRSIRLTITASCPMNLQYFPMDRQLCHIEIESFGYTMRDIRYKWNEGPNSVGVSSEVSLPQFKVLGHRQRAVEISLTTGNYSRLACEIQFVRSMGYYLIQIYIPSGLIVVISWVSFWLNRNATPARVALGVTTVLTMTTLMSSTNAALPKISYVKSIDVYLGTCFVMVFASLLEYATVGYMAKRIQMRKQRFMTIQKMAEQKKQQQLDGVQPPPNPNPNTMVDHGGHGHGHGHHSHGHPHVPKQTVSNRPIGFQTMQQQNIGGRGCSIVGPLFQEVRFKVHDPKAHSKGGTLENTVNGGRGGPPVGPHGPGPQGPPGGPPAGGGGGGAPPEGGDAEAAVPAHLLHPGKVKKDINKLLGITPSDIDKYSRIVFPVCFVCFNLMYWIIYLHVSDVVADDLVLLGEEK

[2] = Displacement of [3H]EBOB from GABA receptor in Rattus norvegicus (rat) membrane after 70 min by liquid scintillation counting; format: cell membranes
[3] = biological target: T2, GABA receptor subunit (Musca domestica) (UniProt Q75NA5); assay: Displacement of [3H]EBOB from GABA receptor in Musca domestica (house fly) head P2 membrane at 2.2 uM after 70 min by liquid scintillation counting
T2 sequence (whole entry): T1 sequence (Q75NA5 whole entry)

Row | Structure (SMILES) | IC50 [1] [µM] | IC50 (GABA receptor subunit) [µM] | IC50 [2] [µM] | inhibition [3] [%]
1 | CC(C)(C)CCOC(=O)c1ccc(C#CCCC(=O)O)cc1 | 0.54 | 0.088 | 3.41 | 
2 | COc1cc(O)c2c(c1C)C(C)C(O)(COC(=O)c1ccc(O)c(CC=C(C)C)c1)OC2=O (stereo unspecified) [DIHYDROISOCOUMARIN] |  | 0.088 | 3.41 | 65
